Results on four molecules are retold here after patent US11510964B2, “Macrocyclic peptides to decrease c-Myc protein levels and reduce cancer cell growth” (University of Kansas, priority 2017, dated 2022).

For series [1] the following is noted: mice, after systemic administration; cited from earlier work.
The conditions of series [2]: mice, dose of 60 mg/kg; cited from earlier work.
Series [3] has as its system PC-3 cells. It counts as cell-based, human. The note with it: 48 h, read-out: IC50, cell growth. How it is done:
Human prostate cancer PC-3 cells were cultured and maintained in EMEM (ATCC), non-prostate HEK (human embryonic kidney) cells were cultured in DMEM, human prostate cancer DU145, LNCaP, 22Rv1 cells were cultured in RPMI 1640 (ATCC), and normal BPH-1 prostate cells and prostate cancer C4-2 cell line were cultured in RPMI 1640 (ATCC), all containing 10% fetal bovine serum (Atlanta Biologicals) and 1% penicillin/streptomycin (Invitrogen). Cells were grown at 37° C. in humidified air with 5% CO2 and passaged every fourth to fifth day following trypsinization with trypsin/EDTA (Invitrogen).^16
PC-3, LNCaP, DU 145, 22Rv1, C4-2, BPH-1, and HEK cells were grown to a density of 2000 cells/well in 96 well plates and treated with [D-Trp]CJ-15,208 or other peptides for 24-72 h in duplicate. Media containing [D-Trp]CJ-15,208 was changed every 24 h. The proliferation of treated cells was determined using the cell proliferation reagent WST-1 (Roche) per the manufacturer's instructions and compared to […] control cells in 1% DMSO in media. After treatment with compound 10 μL of the reagent was added to the well in 100 μL culture media, and the cells incubated at 37° C. for 30 min. The absorbance of the media in each well was measured at […] using a plate reader (BioTek). The percentage cell proliferation was normalized to vehicle treated control cells calculated as: (mean absorbance of sample/mean absorbance of control cells)×100.^38
Each experiment was performed in triplicate unless otherwise stated in the figure legend. GraphPad Prism 5 was used to determine IC50 values. Data represent the mean value+/−SEM. Compound vs. vehicle treated cells in the cell cycle phase and apoptosis experiments (FIGS. 5-8) were compared using the student's t-test, with a two-tailed, unpaired method, using the Prism software. The effects of compound vs. vehicle treatment on protein levels (FIG. 10) were evaluated by one-way ANOVA with Dunnett's test for multiple comparisons.

The test system of series [4] is c-Myc protein levels in PC-3 cells. Nature of the series: Western blot analysis of cellular c-Myc protein levels. It counts as cell-based, human. How it is done: Cells were seeded in 6 well plates at a density of 1×10^5 cells/well and grown to 75% confluence. Cells were treated with [D-Trp]CJ-15,208 at the indicated concentrations. Cells were then harvested as described above, and the cell pellets lysed in RIPA buffer consisting of 10 mM Tris HCl, pH 8.0, 150 mM NaCl, 1 mM EDTA, 1% Triton-X-100, 0.1% SDS, 1% sodium deoxycholate, and a protease inhibitor cocktail #P8340 (Sigma). Cell lysates were centrifuged at 13×1000 rpm for 15 min and the supernatants collected. The total protein concentration was measured in cell lysates using the standard Bradford assay. SDS gel electrophoresis was performed using 4-20% polyacrylamide gel (BioRad). Western blot analysis was performed using the following antibodies: i) c-Myc #5605 (rabbit monoclonal, 1:2000 dilution, (Cell Signaling Technologies)); actin #A2228 (mouse monoclonal, 1:5000 dilution (Sigma)), PP2A #610555 (mouse monoclonal 1:5000 dilution, BD Biosciences), p-PP2A #1155-1 (rabbit polyclonal, 1:5000 dilution (Epitomics)), Erk #9107 (mouse monoclonal, 1:2000 dilution (Cell Signaling Technologies) and p-Erk #4376 (rabbit monoclonal, 1:2000 (Cell Signaling Technologies)); Akt #2920 (mouse monoclonal, 1:2000 dilution (Cell Signaling Technologies)), p-Akt #4056 (rabbit monoclonal, 1:2000 (Cell Signaling Technologies)). The secondary antibodies, goat-anti-mouse #116-035-003 and goat-anti-rabbit #111-035-003, were obtained from Jackson ImmunoResearch Laboratory. Signal densities of the protein bands were determined using ImageJ software (NIH) and normalized to the internal loading control (actin).
On the technique in general: In western blotting, separated proteins are transferred to a membrane and probed.

The conditions of series [5]: cited from earlier work.

Non-standard residues stand in square brackets, D forms with d. Residues, ends and D or L forms follow the SMILES beside them.

By IC50 is commonly meant the concentration needed to halve the response being measured. Turning to `O=C1N[C@@H](Cc2ccccc2)C(=O)N2CCC[C@@H]2C(=O)N[C@@H](Cc2ccccc2)C(=O)N[C@H]1Cc1c[nH]c2ccccc12` [CJ-15,208, cyclo[Phe-D-Pro-Phe-Trp]] (cyclo(FWF[dP])), the blood-brain barrier penetration entry in series [1] is on record as “appear to penetrate the blood-brain barrier”. Further, the toxicity result in series [2] was “no evidence of toxicity”. Further, in series [3], the IC50 was 10.1 ± 0.9 µM. Besides, the “decrease of cellular c-Myc protein levels” value in series [4] (50 μM (FIG. 1E lanes 4 and 5)) was found to be 5 fold. Further, the “reduction of c-Myc protein levels” value in series [4] (PC-3 cells, 10 μM, 48 h) is “approximately 50%”. The “activity after oral administration” value in series [5] was “active after oral administration”.
`C=CCN1CC[C@]23c4c5ccc(O)c4O[C@H]2C(=O)CC[C@@]3(O)[C@H]1C5` [naloxone, reference compound]: the “effect on the decrease in c-Myc protein levels caused by [D-Trp]CJ-15,208” value in series [4] (PC-3 cells, 10 μM naloxone with 10 μM [D-Trp]CJ-15,208 (FIG. 1F lane 4 vs. lane 2)) is “did not alter the decrease”. In addition, in series [4] (PC-3 cells, 10 μM, 48 h (FIG. 1F lane 3)), the “effect on c-Myc protein levels” value is listed as “no effect”.
For `CC[C@H](C)[C@@H]1NC(=O)[C@H](CCCNC(=N)N)NC(=O)[C@@H](NC(=O)[C@H](Cc2ccccc2)NC(=O)CNC(=O)CNC(=O)[C@H](Cc2ccc(O)cc2)NCc2ccccc2)CC(=O)NC[C@@H](C(=O)N[C@@H](CCCNC(=N)N)C(=O)N2CCC[C@H]2C(=O)N[C@@H](CCCCN)C(N)=O)NC1=O` [zyklophin, reference compound], the “effect on cellular c-Myc protein levels” value in series [4] (10 μM (FIG. 1E lane 3)) is on record as “not decreased”.
Turning to “dynorphin A-(1-13) (YGGFLRRIRPKP) [reference compound]”, in series [4] (1 μM (FIG. 1E lane 2)), the “effect on cellular c-Myc protein levels” value was “not decreased”.
